Measurements reported in patent publication US12427183B2, “Methods of treating cancer, infectious disease, and autoimmune disease using chemokines” (New York Society for the Relief of the Ruptured and …, priority 2016, dated 2025).

Legend:
[1] = molecular target: PI3Kδ (Homo sapiens, UniProt O00329); conditions: at the concentration used (10 μM)
[2] = tested on: CXCR3; assay: CXCR3 inhibition during chemokine-potentiated TLR9 activation of pDCs, IFN-α ELISA; type: cell-based, human; conditions: AMG487 0.1, 1 or 10 μM, CpG 0.25 μM, 24 hours
Experimental: Purified pDCs from HDs were cultured in media alone (control), with either a CpG TLR9 agonist (0.25 μM) or with CpG and either CXCL4 or CXCL10 (both at 10 μg/ml) alone or in the presence of the CXCR3 inhibitor AMG487 at 0, 0.1, 1 or 10 μM for 24 hours. IFN-α was quantified in the supernatants by ELISA.

Sequence of PI3Kδ (O00329 whole entry): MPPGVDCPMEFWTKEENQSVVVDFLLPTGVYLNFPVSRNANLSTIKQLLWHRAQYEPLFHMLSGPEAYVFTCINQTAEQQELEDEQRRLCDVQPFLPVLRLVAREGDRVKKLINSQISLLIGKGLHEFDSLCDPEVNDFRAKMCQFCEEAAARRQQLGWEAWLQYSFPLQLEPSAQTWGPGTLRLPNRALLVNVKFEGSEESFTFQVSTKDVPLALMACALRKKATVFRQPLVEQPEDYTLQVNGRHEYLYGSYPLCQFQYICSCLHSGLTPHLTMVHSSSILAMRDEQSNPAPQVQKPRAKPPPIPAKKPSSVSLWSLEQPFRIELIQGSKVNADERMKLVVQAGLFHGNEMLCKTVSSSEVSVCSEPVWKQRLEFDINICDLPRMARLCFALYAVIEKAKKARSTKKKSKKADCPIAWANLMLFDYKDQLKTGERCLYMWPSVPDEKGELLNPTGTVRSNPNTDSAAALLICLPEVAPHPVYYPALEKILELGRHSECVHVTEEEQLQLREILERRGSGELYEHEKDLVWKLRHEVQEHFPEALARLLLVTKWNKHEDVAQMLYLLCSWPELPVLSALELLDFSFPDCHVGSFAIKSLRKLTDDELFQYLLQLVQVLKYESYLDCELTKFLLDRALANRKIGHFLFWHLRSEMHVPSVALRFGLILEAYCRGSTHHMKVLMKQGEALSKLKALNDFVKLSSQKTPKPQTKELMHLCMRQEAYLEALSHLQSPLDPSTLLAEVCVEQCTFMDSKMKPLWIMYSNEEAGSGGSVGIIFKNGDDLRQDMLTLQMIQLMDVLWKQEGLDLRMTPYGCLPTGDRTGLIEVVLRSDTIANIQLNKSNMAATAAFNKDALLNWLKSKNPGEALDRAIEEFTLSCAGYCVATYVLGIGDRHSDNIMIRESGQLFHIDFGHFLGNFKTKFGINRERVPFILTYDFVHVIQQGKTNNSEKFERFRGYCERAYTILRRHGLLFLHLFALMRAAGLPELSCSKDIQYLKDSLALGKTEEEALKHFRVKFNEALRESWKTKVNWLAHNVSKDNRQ
Sequence of PI3Kδ (P27986 whole entry partner): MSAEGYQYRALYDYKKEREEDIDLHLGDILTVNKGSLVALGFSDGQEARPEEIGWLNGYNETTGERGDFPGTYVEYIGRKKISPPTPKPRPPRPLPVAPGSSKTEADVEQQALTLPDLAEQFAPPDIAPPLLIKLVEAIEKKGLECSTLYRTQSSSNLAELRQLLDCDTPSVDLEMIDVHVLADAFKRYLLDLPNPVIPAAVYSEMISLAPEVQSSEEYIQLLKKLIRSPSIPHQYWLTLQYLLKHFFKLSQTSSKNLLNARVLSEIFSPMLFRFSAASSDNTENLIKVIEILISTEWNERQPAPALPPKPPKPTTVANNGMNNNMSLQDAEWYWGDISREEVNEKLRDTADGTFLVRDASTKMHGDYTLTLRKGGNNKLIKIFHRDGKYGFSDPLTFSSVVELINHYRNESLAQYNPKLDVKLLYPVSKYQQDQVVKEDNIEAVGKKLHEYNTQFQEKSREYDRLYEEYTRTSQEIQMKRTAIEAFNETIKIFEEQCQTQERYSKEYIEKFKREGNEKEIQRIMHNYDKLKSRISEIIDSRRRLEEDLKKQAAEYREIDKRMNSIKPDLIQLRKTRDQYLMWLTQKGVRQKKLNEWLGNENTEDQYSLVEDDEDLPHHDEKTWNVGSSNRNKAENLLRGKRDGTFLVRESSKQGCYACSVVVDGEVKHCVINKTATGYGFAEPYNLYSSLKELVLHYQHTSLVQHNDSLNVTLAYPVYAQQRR

Structure (SMILES): CC[C@H](Nc1ncnc2[nH]cnc12)c1nc2cccc(F)c2c(=O)n1-c1ccccc1 [CAL-101]
- cell viability of pDCs from HDs [1]: without impacting

Structure (SMILES): CCOc1ccc(-n2c([C@@H](C)N(Cc3cccnc3)C(=O)Cc3ccc(OC(F)(F)F)cc3)nc3ncccc3c2=O)cc1 [AMG487]
- effect of CXCR3 inhibition on the activation of TLR9 by CXCL4 in pDCs ([2]; CXCL4 10 μg/ml): no effect
- effect of CXCR3 inhibition on the activation of TLR9 by CXCL10 in pDCs ([2]; CXCL10 10 μg/ml): no effect
